{"source": "ChEMBL document CHEMBL2034857", "about": "“Discovery of the macrocycle (9E)-15-(2-(pyrrolidin-1-yl)ethoxy)-7,12,25-trioxa-19,21,24-triaza-tetracyclo[18.3.1.1(2,5).1(14,18)]hexacosa-1(24),2,4,9,14(26),15,17,20,22-nonaene (SB1578), a potent inhibitor of janus kinase 2/fms-like tyrosine kinase-3 (JAK2/FLT3) for the treatment of rheumatoid …” (J Med Chem, 2012)", "key": {"[1]": {"target": "Tyrosine-protein kinase JAK2 (Homo sapiens, UniProt O60674)", "sequence (O60674 whole entry)": "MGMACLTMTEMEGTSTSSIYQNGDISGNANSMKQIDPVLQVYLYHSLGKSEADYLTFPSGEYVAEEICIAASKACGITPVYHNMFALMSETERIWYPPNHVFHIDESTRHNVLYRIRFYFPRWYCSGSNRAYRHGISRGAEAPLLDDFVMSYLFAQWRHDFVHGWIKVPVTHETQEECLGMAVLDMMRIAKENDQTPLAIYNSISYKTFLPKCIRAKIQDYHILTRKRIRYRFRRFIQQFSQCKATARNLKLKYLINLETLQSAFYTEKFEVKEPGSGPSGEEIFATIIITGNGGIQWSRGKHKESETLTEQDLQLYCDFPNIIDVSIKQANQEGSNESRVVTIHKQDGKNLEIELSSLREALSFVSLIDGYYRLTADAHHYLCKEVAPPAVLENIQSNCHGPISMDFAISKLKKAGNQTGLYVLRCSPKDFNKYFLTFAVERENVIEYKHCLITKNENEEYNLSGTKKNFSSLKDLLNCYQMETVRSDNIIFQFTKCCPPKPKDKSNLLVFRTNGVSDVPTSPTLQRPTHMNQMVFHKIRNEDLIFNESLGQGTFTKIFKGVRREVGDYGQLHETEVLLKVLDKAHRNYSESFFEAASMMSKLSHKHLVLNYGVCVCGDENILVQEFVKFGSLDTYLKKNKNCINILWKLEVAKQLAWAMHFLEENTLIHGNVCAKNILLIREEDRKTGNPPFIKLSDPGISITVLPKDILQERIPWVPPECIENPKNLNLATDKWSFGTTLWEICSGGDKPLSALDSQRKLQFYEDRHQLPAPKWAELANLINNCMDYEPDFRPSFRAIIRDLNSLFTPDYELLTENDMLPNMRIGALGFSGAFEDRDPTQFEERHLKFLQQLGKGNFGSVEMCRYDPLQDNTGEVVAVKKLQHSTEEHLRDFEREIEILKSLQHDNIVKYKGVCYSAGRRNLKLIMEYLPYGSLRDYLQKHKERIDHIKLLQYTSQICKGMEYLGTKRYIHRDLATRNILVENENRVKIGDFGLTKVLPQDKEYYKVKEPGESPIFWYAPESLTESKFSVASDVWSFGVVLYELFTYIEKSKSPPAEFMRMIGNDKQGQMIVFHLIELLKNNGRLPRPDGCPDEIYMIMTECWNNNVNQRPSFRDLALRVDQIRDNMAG", "assay": "Inhibition of recombinant JAK2 using poly(Glu,Ala,Tyr) as substrate after 2 hrs by luminometric assay"}, "[2]": {"target": "Non-receptor tyrosine-protein kinase TYK2 (Homo sapiens, UniProt P29597)", "sequence (P29597 whole entry)": "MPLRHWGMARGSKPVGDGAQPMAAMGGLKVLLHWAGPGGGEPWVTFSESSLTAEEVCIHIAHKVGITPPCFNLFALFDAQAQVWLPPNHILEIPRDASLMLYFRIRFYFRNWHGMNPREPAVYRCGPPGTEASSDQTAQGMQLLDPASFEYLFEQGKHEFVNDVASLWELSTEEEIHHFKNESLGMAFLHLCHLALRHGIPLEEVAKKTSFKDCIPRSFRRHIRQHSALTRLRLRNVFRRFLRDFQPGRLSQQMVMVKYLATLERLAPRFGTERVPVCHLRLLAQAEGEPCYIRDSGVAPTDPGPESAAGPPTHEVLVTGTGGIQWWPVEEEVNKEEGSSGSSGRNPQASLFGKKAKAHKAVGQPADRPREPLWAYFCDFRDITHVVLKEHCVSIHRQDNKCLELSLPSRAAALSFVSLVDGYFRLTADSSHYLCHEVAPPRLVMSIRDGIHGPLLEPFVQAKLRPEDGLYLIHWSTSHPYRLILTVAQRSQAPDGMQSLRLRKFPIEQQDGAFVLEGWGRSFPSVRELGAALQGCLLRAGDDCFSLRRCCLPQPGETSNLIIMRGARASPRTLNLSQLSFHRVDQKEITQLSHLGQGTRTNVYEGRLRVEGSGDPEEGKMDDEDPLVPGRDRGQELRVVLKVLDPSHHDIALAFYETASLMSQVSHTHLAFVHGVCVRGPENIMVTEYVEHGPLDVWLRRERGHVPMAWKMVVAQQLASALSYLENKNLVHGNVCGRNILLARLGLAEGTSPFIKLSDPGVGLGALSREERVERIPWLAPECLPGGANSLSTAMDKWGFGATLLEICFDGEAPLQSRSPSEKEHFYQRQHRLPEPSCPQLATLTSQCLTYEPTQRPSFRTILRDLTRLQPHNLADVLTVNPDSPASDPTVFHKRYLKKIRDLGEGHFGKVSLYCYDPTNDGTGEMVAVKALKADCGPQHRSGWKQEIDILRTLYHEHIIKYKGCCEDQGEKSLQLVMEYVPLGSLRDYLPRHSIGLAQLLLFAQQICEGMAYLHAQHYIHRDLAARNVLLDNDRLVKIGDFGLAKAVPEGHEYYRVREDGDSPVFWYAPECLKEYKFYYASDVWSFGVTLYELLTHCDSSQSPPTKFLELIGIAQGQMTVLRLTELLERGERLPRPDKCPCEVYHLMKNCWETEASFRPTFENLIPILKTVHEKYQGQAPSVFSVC", "assay": "Inhibition of TYK2"}, "[3]": {"target": "T1, Receptor-type tyrosine-protein kinase FLT3 (Homo sapiens, UniProt P36888)", "T1 sequence (P36888 whole entry)": "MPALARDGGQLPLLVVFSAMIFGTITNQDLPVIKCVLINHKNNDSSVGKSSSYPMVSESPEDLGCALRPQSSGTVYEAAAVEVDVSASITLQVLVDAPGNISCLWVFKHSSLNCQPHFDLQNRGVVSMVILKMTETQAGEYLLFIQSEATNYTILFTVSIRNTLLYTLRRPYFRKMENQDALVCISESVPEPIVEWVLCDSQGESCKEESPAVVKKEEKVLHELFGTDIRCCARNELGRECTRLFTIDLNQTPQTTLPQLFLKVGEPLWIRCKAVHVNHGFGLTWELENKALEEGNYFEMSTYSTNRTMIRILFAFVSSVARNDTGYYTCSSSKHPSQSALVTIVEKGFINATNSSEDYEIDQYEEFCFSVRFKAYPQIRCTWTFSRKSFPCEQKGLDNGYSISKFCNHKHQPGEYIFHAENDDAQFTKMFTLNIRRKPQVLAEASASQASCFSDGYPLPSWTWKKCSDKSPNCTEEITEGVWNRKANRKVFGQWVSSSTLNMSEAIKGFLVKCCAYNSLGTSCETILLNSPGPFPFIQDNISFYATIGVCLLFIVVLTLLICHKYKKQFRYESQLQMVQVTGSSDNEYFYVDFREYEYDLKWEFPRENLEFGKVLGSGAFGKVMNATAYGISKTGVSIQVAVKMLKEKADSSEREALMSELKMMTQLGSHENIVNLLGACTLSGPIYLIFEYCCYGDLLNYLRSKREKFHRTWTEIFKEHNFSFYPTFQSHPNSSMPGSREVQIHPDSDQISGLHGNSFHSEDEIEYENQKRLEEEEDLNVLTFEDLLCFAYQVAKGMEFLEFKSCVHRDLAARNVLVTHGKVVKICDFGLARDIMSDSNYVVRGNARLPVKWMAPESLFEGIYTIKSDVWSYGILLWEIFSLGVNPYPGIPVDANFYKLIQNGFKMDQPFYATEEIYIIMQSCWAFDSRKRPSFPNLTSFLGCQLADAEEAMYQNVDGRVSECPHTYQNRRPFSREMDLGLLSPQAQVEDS", "assay": "Inhibition of recombinant FLT3 using poly(Glu,Tyr) as substrate after 2 hrs by luminometric assay"}, "[4]": {"target": "T2, Tyrosine-protein kinase JAK3 (Homo sapiens, UniProt P52333)", "T2 sequence (P52333 whole entry)": "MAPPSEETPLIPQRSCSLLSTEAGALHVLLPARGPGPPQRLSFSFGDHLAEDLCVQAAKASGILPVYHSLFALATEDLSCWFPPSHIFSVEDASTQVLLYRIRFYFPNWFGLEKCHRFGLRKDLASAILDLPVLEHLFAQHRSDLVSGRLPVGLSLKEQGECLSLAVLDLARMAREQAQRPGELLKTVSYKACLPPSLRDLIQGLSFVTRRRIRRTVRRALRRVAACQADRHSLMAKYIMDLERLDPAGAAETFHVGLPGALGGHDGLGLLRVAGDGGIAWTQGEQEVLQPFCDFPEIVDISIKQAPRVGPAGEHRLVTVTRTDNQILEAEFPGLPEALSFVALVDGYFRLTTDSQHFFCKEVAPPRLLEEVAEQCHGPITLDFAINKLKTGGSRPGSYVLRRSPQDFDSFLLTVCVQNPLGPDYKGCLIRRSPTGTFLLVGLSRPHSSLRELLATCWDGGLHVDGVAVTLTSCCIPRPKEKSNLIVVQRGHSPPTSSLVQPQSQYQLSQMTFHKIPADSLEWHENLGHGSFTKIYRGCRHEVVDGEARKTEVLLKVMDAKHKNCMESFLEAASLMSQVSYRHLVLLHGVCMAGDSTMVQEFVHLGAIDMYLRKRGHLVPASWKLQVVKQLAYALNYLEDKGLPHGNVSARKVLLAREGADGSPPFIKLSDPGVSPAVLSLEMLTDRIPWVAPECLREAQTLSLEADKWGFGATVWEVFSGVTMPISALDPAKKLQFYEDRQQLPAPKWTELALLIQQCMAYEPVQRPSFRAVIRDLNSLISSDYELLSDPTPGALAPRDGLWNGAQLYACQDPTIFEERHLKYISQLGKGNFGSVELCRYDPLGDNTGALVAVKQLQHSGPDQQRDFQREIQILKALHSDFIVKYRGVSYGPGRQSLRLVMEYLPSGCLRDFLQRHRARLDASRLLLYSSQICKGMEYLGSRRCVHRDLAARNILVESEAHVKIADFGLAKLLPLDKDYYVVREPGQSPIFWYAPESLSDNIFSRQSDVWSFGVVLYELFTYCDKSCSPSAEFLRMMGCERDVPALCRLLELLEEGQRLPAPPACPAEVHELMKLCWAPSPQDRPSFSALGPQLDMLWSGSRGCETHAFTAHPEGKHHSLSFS", "assay": "Inhibition of recombinant JAK3 using poly(Glu,Ala,Tyr) as substrate after 2 hrs by luminometric assay"}, "[5]": {"target": "Tyrosine-protein kinase JAK1 (Homo sapiens, UniProt P23458)", "sequence (P23458 whole entry)": "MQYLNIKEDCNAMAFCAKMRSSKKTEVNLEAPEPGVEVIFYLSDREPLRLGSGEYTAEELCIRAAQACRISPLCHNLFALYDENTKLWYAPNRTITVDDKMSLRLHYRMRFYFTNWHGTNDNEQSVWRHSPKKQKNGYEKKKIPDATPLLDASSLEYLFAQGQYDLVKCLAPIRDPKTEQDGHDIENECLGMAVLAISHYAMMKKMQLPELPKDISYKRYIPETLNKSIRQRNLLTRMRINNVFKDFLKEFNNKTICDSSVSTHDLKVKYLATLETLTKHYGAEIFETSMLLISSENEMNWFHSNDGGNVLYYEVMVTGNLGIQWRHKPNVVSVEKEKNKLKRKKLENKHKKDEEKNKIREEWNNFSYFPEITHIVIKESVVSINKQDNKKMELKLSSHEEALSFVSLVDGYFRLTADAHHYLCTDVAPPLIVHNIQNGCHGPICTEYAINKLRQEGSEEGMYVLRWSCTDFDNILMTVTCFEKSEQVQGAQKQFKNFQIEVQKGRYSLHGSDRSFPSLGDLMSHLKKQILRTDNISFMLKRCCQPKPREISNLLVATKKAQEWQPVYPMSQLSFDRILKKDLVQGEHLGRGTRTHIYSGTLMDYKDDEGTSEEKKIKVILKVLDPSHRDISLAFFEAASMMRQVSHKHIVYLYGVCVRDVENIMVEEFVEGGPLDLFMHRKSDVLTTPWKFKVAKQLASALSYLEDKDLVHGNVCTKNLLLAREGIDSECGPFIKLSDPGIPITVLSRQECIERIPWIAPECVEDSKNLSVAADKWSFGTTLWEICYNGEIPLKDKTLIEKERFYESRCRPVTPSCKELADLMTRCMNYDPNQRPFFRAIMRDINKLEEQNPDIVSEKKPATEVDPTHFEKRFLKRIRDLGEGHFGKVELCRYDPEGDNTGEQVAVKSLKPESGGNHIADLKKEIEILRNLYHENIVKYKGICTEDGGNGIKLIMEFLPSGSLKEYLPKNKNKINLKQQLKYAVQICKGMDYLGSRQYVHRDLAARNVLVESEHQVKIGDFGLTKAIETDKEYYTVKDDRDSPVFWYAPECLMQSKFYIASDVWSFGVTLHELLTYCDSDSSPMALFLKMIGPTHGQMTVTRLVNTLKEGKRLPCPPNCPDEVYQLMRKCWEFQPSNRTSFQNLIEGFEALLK", "assay": "Inhibition of recombinant JAK1 using poly(Glu,Ala,Tyr) as substrate after 2 hrs by luminometric assay"}, "[6]": {"target": "Cyclin-dependent kinase 2 (Homo sapiens, UniProt P24941)", "assay": "Inhibition of recombinant CDK2 using RbING as substrate after 2 hrs by luminometric assay"}}}
{"smiles": "C1=C/COCc2cncc(c2)-c2ccnc(n2)Nc2cccc(c2)COC/1", "values": [{"measurement": "IC50", "setting": "[1]", "value": 930, "unit": "nM"}, {"measurement": "IC50", "setting": "[2]", "value": 950, "unit": "nM"}, {"measurement": "IC50", "setting": "[3]", "value": 560, "unit": "nM"}, {"measurement": "IC50", "setting": "[4]", "value": "> 10000", "unit": "nM"}, {"measurement": "IC50", "setting": "[5]", "value": "> 10000", "unit": "nM"}, {"measurement": "IC50", "setting": "[6]", "value": 200, "unit": "nM"}]}
{"smiles": "CN1C/C=C/COCC2CCCN(C2)c2ccnc(n2)Nc2cccc(c2)C1", "note": "(mixture of isomers)", "values": [{"measurement": "IC50", "setting": "[1]", "value": "> 10000", "unit": "nM"}, {"measurement": "IC50", "setting": "[2]", "value": "> 10000", "unit": "nM"}, {"measurement": "IC50", "setting": "[3]", "value": "> 10000", "unit": "nM"}, {"measurement": "IC50", "setting": "[4]", "value": "> 10000", "unit": "nM"}, {"measurement": "IC50", "setting": "[5]", "value": "> 10000", "unit": "nM"}, {"measurement": "IC50", "setting": "[6]", "value": "> 10000", "unit": "nM"}]}
{"smiles": "CN1C/C=C/CCn2ccc3ccc(cc32)-c2ccnc(n2)Nc2cccc(c2)C1", "note": "(mixture of isomers)", "values": [{"measurement": "IC50", "setting": "[2]", "value": 1500, "unit": "nM"}, {"measurement": "IC50", "setting": "[3]", "value": 93, "unit": "nM"}, {"measurement": "IC50", "setting": "[4]", "value": "> 10000", "unit": "nM"}, {"measurement": "IC50", "setting": "[5]", "value": 1000, "unit": "nM"}, {"measurement": "IC50", "setting": "[6]", "value": 77, "unit": "nM"}]}
{"smiles": "C1=C/Cn2ccc3ccc(cc32)-c2ccnc(n2)Nc2cccc(c2)COC/1", "note": "(mixture of isomers)", "values": [{"measurement": "IC50", "setting": "[3]", "value": 73, "unit": "nM"}, {"measurement": "IC50", "setting": "[4]", "value": "> 10000", "unit": "nM"}, {"measurement": "IC50", "setting": "[5]", "value": 4800, "unit": "nM"}, {"measurement": "IC50", "setting": "[6]", "value": 83, "unit": "nM"}]}
{"smiles": "CN1C/C=C/CCOc2cc(ccn2)-c2ccnc(n2)Nc2cccc(c2)C1", "note": "(mixture of isomers)", "values": [{"measurement": "IC50", "setting": "[1]", "value": 260, "unit": "nM"}, {"measurement": "IC50", "setting": "[2]", "value": 65, "unit": "nM"}, {"measurement": "IC50", "setting": "[3]", "value": 310, "unit": "nM"}, {"measurement": "IC50", "setting": "[4]", "value": "> 10000", "unit": "nM"}, {"measurement": "IC50", "setting": "[5]", "value": 170, "unit": "nM"}, {"measurement": "IC50", "setting": "[6]", "value": 22, "unit": "nM"}]}
{"smiles": "CN1C/C=C/COCc2cncc(c2)-c2ccnc(n2)Nc2cccc(c2)C1", "note": "(mixture of isomers)", "values": [{"measurement": "IC50", "setting": "[1]", "value": "> 10000", "unit": "nM"}, {"measurement": "IC50", "setting": "[2]", "value": 5900, "unit": "nM"}, {"measurement": "IC50", "setting": "[3]", "value": 4800, "unit": "nM"}, {"measurement": "IC50", "setting": "[4]", "value": "> 10000", "unit": "nM"}, {"measurement": "IC50", "setting": "[5]", "value": "> 10000", "unit": "nM"}, {"measurement": "IC50", "setting": "[6]", "value": 420, "unit": "nM"}]}
{"smiles": "CN1C/C=C/COCC2=CC=C(O2)c2ccnc(n2)Nc2cccc(c2)C1", "note": "(mixture of isomers)", "values": [{"measurement": "IC50", "setting": "[1]", "value": 820, "unit": "nM"}, {"measurement": "IC50", "setting": "[2]", "value": 1500, "unit": "nM"}, {"measurement": "IC50", "setting": "[3]", "value": 770, "unit": "nM"}, {"measurement": "IC50", "setting": "[4]", "value": "> 10000", "unit": "nM"}, {"measurement": "IC50", "setting": "[5]", "value": 1800, "unit": "nM"}, {"measurement": "IC50", "setting": "[6]", "value": 320, "unit": "nM"}]}
{"smiles": "C1=C2COC/C=C/COCc3cccc(c3)Nc3nccc(n3)C(=C1)O2", "note": "(mixture of isomers)", "values": [{"measurement": "IC50", "setting": "[1]", "value": 220, "unit": "nM"}, {"measurement": "IC50", "setting": "[2]", "value": 670, "unit": "nM"}, {"measurement": "IC50", "setting": "[3]", "value": 620, "unit": "nM"}, {"measurement": "IC50", "setting": "[4]", "value": "> 10000", "unit": "nM"}, {"measurement": "IC50", "setting": "[5]", "value": 8000, "unit": "nM"}, {"measurement": "IC50", "setting": "[6]", "value": 680, "unit": "nM"}]}
{"smiles": "C1=C/Cn2ccc3ccc(cc32)-c2ccnc(n2)Nc2ccc(OCCN3CCCC3)c(c2)COC/1", "note": "(mixture of isomers)", "values": [{"measurement": "IC50", "setting": "[1]", "value": 63, "unit": "nM"}, {"measurement": "IC50", "setting": "[3]", "value": 7.9, "unit": "nM"}, {"measurement": "IC50", "setting": "[4]", "value": 1140, "unit": "nM"}, {"measurement": "IC50", "setting": "[6]", "value": 230, "unit": "nM"}]}
{"smiles": "Cc1cnc2nc1-c1ccc3ccn(c3c1)C/C=C/COCc1cc(ccc1OCCN1CCCC1)N2", "note": "(mixture of isomers)", "values": [{"measurement": "IC50", "setting": "[1]", "value": 370, "unit": "nM"}, {"measurement": "IC50", "setting": "[2]", "value": 440, "unit": "nM"}, {"measurement": "IC50", "setting": "[3]", "value": 17, "unit": "nM"}, {"measurement": "IC50", "setting": "[4]", "value": "> 10000", "unit": "nM"}, {"measurement": "IC50", "setting": "[5]", "value": 5100, "unit": "nM"}, {"measurement": "IC50", "setting": "[6]", "value": 2500, "unit": "nM"}]}
